The values below come from patent publication US20250082598A1, “Melafenoxate, 2-(1-adamantylamino)ethyl 2-(4-chlorophenoxy)acetate and derivatives thereof for treating circadian rhythm sleep disorders with neurodegenerative diseases such as Alzheimer's disease” (NLS Pharmaceutics AG, priority 2021, published 2025).

The test system of this test is C57BL/6J mice. Briefly: Scopolamine-induced amnesia in the novel object recognition (NOR) test. The test is classed as in vivo. Particulars: scopolamine 1.2 mg/kg i.p. alone. The procedure:
The scopolamine-induced amnesia in the novel object recognition (NOR) test in mice is a recognized in vivo model of Alzheimer Disease (AD).
The aim of this study is to examine whether Melafenoxate (NLS-8) improves amnesia induced by scopolamine in the NOR test.
Experiments were carried out on C57BL/6J mice.
In a first step of the experiment, NLS-8 was tested at 25, 50 and 100 mg/kg.
Animals were divided into 6 groups (N=4-10/group).
At T=0 min, they received the following treatments by intraperitoneal (i.p.) route: • Control group: vehicle. • Scopolamine group: scopolamine (1.2 mg/kg). • NLS-8 25 group: NLS-8 (25 mg/kg)+scopolamine (1.2 mg/kg). • NLS-8 50 group: NLS-8 (50 mg/kg)+scopolamine (1.2 mg/kg). • NLS-8 100 group: NLS-8 (100 mg/kg)+scopolamine (1.2 mg/kg). • NLS-8 150 group: NLS-8 (150 mg/kg)+scopolamine (1.2 mg/kg).
At T=30 min following treatment, animals were subjected to a sample trial. They were placed for a 12-min session in a circular experimental box in which two identical objects were presented (50% of animals: two brown cylindrical vials; 50% of animals: two black rectangular columns). At t=120 min following treatments, mice were subjected to a choice trial. They were placed again for a 12-min session in the same experimental box in which two different objects (a vial and a column) were presented: one of the objects (termed as familiar object) presented in the sample trial and a novel object. Exploration of the objects was recorded by an experimenter blind to treatment and unaware of which object was the novel one and which object was the familiar one.
DI(discrimination index)=100 ×(exploration time of the novel object−exploration time of the familiar object)/(exploration time of the novel object+exploration time of the familiar object). • Index of exploration: N+F=exploration time of the novel object+exploration time of the familiar object.
• Within group comparisons: DI vs. 0 (paired Student's t test). • Between group comparisons vs. the Control group and vs. the Scopo group: unpaired Student's t test.

For the compound `CN1[C@@H]2C[C@@H](OC(=O)[C@H](CO)c3ccccc3)C[C@H]1[C@@H]1O[C@@H]12` [Scopo, scopolamine, reference compound], the “discrimination index vs. 0 (within group)” value is on record as “Not significantly different from 0” and the “discrimination index vs. Control group” value is “Significantly lower”.
